Experimental data as given in ChEMBL document CHEMBL1201862, “PubChem BioAssay data set” (2004).
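A five-concentration, 48-hour dose response in 96-well plates underlies each endpoint, interpolated linearly between surrounding concentrations. GI50: concentration for 50% inhibition of growth.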 Activity calls are given as the source filed them. Cut-off read from the data, not from the text of the source: active = GI50 up to about 1.1 µM and inactive = higher.

How the values were obtained:
Assay in all cases: DTP human tumour cell line panel, 48 h
CAKI-1 = system: CAKI-1
DU-145 = system: DU-145
HT-29 = system: HT-29
UO-31 = system: UO-31
SW-620 = system: SW-620
UACC-62 = system: UACC-62
SK-MEL-5 = system: SK-MEL-5
SF-268 = system: SF-268
SN12C = system: SN12C
786-0 = system: 786-0
CCRF-CEM = system: CCRF-CEM
RPMI-8226 = system: RPMI-8226
PC-3 = system: PC-3
M14 = system: M14
SK-OV-3 = system: SK-OV-3
RXF 393 = system: RXF 393
HCC 2998 = system: HCC 2998
HOP-62 = system: HOP-62
OVCAR-8 = system: OVCAR-8
SNB-19 = system: SNB-19

Measured: GI50

CC(=O)NCCCCN(CCCNC(C)=O)C(=O)OCc1ccccc1
inactive: CAKI-1 > 100 µM | DU-145 > 100 µM | HT-29 > 100 µM | UO-31 64.3 µM | SW-620 > 100 µM | UACC-62 > 100 µM | SK-MEL-5 > 100 µM | SF-268 > 100 µM | SN12C > 100 µM | 786-0 > 100 µM | CCRF-CEM > 100 µM | RPMI-8226 > 100 µM | PC-3 > 100 µM | M14 > 100 µM | SK-OV-3 > 100 µM | RXF 393 > 100 µM | HCC 2998 > 100 µM | HOP-62 > 100 µM | OVCAR-8 > 100 µM

S=C1/C(=N/c2ccccc2)N(c2ccccc2)/C(=N\c2ccccn2)N1c1ccccc1
inactive: CAKI-1 15.5 µM | DU-145 19.8 µM | HT-29 11 µM | SNB-19 16.3 µM | UO-31 13.3 µM | SW-620 14 µM | UACC-62 2.77 µM | SK-MEL-5 13.9 µM | SF-268 16.6 µM | SN12C 8.41 µM | 786-0 14.5 µM | CCRF-CEM > 100 µM | RPMI-8226 6.78 µM | PC-3 12.8 µM | SK-OV-3 19.9 µM | RXF 393 10 µM | HCC 2998 14.1 µM | HOP-62 16.3 µM | OVCAR-8 14.5 µM

N=C(c1ccc2ccccc2c1)c1ccccc1Cc1ccccc1
inactive: CAKI-1 55 µM | DU-145 29.8 µM | HT-29 16.4 µM | SNB-19 > 100 µM | UO-31 33.4 µM | SW-620 37.8 µM | UACC-62 43.3 µM | SK-MEL-5 37.2 µM | SN12C 34.8 µM | 786-0 54.6 µM | CCRF-CEM 19.5 µM | RPMI-8226 38 µM | PC-3 51.6 µM | M14 58.1 µM | SK-OV-3 43 µM | RXF 393 5.97 µM | HCC 2998 31.8 µM | HOP-62 39.6 µM | OVCAR-8 44 µM

Nc1ccc(C(=O)Nn2c(-c3ccccc3)nc3ccccc3c2=O)cc1
inactive: DU-145 > 100 µM | HT-29 > 100 µM | SNB-19 > 100 µM | UO-31 > 100 µM | SW-620 > 100 µM | UACC-62 > 100 µM | SK-MEL-5 > 100 µM | SF-268 > 100 µM | SN12C > 100 µM | 786-0 > 100 µM | CCRF-CEM > 100 µM | RPMI-8226 > 100 µM | PC-3 > 100 µM | M14 > 100 µM | SK-OV-3 > 100 µM | RXF 393 > 100 µM | HCC 2998 > 100 µM | HOP-62 > 100 µM | OVCAR-8 > 100 µM

[N-]=[N+]=CC(=O)OCCCCl
inactive: CAKI-1 > 100 µM | DU-145 > 100 µM | HT-29 > 100 µM | SNB-19 > 100 µM | UO-31 > 100 µM | SW-620 > 100 µM | UACC-62 > 100 µM | SK-MEL-5 > 100 µM | SF-268 > 100 µM | SN12C > 100 µM | 786-0 > 100 µM | CCRF-CEM > 100 µM | RPMI-8226 > 100 µM | PC-3 > 100 µM | SK-OV-3 > 100 µM | RXF 393 > 100 µM | HCC 2998 > 100 µM | HOP-62 > 100 µM

Cc1ccc(C(=O)Cn2c(C(=O)/C=C/c3cccs3)nc3ccccc32)cc1
inactive: DU-145 82 µM | HT-29 38.5 µM | SNB-19 58.1 µM | UO-31 62.8 µM | SW-620 34.2 µM | UACC-62 87.1 µM | SK-MEL-5 36.1 µM | SF-268 32.9 µM | SN12C 32.9 µM | 786-0 45.5 µM | CCRF-CEM 11.5 µM | RPMI-8226 21.7 µM | PC-3 28.6 µM | M14 49.9 µM | SK-OV-3 > 100 µM | RXF 393 94.6 µM | HCC 2998 21 µM | HOP-62 67.1 µM
